By AC50 is commonly meant the concentration at which the activity in the assay is half-maximal.

Structures are written as SMILES. Counter-ions that a name gives are not always drawn. The source made the active and inactive calls. Rule as the data show it, for most assays here: actives have a measured EC50 and inactives only a lower limit.

Test [1] has as its target Luciferin 4-monooxygenase (Photinus pyralis, UniProt P08659). The test is described as follows: inhibition of purified Photinus pyralis luciferase – biochemical, luminescence, dose response (AID 1891).
Test [2] is described as follows: Luminescence Cell-Based Dose Confirmation HTS to Identify Inhibitors of Platelet Dense Granule Release. [Related pubchem assays: 1663 (Primary HTS), 1678 (Summary of Project)]. It is filed as functional.
Test [3] is described as follows: NIH-3T3 fibroblast cytotoxicity, dose response, cytotoxicity control, cell-based, fluorescence, Alamar Blue, secondary assay (AID 2327).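 Also: NIH-3T3 mouse fibroblasts cultured with fluconazole at 8 µg/mL.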 It is filed as functional. For orientation: Resazurin is reduced to fluorescent resorufin, in cell work by metabolically active cells.
A short description of test [4]: fluconazole-exposed Candida albicans growth modulators – fluorescence, retest, confirmation (AID 2467). It is filed as functional, cell-based.
The target of test [5] is T1, Corticotropin-releasing factor receptor 2/Corticotropin-releasing factor-binding protein (Homo sapiens, UniProt P24387+Q13324).
T1 sequence (Q13324 whole entry): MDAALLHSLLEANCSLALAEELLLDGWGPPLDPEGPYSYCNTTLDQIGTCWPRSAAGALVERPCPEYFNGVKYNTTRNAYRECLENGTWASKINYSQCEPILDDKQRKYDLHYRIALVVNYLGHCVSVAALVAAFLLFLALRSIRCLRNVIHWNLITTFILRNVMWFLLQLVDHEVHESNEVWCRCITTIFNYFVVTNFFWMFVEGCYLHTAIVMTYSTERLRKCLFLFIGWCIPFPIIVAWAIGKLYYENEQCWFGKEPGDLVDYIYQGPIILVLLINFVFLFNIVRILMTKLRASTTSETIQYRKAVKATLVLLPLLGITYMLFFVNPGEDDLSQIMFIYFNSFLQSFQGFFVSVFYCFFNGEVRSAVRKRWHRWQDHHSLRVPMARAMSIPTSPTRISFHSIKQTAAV
T1 sequence (P24387 whole entry): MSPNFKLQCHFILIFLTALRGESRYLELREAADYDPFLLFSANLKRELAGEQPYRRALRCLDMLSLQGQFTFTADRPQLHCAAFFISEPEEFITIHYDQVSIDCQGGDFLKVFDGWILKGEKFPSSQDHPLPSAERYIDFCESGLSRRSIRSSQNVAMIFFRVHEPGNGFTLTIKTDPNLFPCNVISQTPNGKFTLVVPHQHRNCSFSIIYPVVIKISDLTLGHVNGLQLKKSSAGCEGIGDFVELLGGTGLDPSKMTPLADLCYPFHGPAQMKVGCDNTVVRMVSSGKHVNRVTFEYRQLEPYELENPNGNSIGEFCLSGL
The test is described as follows: activators of CRF receptor 2 with binding protein – uHTS hits, confirmation (AID 602473). It is filed as functional. The conditions noted are these: read-out: EC50_Mean.

The test system of the next test is Streptococcus. The test is described as follows: GAS UMAA2166 growth inhibition – luminescence, BacTiterGlo, counter-screen for streptokinase expression inhibitor project, dose response (AID 1915).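 Also: potency for reduction of bacterial viability or growth.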 In kind it is functional, organism-based.
For test [6], the system named is Streptococcus sp. 'group A'. The test is described as follows: Streptococcus pyogenes SK(-)GAS viability under kanamycin – luminescence, BacTiterGlo, confirmation, counter-screen for streptokinase expression inhibitor project, dose response (AID 1900). It is filed as functional, organism-based. A general note: Counterscreens check selectivity or assay interference.

For the next test, the target named is T2, Streptokinase A (Streptococcus pyogenes serotype M1, UniProt P10520).
T2 sequence (P10520 whole entry): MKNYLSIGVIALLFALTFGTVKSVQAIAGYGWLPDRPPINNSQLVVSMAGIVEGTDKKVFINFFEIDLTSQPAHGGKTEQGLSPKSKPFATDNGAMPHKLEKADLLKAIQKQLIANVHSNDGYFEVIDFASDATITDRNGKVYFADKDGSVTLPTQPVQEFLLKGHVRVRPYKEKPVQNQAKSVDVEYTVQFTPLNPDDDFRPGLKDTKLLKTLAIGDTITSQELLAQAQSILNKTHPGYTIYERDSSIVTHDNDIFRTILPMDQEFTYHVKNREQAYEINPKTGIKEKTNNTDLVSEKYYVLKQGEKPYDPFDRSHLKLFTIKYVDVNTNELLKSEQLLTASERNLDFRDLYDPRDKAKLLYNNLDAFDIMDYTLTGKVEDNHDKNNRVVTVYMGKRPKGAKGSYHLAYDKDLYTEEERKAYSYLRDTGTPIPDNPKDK
The test is described as follows: viability-normalized secreted streptokinase activity reduction – plasminogen activation absorbance, OD405, dose response (AID 1914).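 Also: secreted streptokinase activity via plasminogen activation per viability signal from cell pellet.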 In kind it is functional, Streptococcus pyogenes M1 GAS.

Another test addresses Cytochrome P450 2D6 (Homo sapiens, UniProt P10635).
Test [7] has as its target T3, Zinc finger protein mex-5 (Caenorhabditis elegans, UniProt Q9XUB2).
T3 sequence (Q9XUB2 whole entry): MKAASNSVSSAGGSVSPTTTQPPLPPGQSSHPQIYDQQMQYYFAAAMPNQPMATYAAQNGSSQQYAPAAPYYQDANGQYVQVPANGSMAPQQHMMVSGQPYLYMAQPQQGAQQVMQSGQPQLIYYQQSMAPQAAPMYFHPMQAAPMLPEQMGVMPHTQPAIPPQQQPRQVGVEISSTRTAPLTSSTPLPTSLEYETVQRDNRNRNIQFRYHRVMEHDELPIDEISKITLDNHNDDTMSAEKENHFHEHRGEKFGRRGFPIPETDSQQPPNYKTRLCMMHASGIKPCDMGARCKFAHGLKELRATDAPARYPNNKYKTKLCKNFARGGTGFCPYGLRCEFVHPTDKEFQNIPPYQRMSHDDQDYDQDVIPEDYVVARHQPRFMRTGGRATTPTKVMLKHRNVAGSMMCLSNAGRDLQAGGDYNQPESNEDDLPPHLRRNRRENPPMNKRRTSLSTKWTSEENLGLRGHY
The experiment in a line: potency of MEX-5 RNA-binding blockers – biochemical, C. elegans, fluorescence polarization, dose response (AID 1960).

In test [8] the target is T4, RNA-binding protein pos-1 (Caenorhabditis elegans, UniProt G5EF15).
T4 sequence (G5EF15 whole entry): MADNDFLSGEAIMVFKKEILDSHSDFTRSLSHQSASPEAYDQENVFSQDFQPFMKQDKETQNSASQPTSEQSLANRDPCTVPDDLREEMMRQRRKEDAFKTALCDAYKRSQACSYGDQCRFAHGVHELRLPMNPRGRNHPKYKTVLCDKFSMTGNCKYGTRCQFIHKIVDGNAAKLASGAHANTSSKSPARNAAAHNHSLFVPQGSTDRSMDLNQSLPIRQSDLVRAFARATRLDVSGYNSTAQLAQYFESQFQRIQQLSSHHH
The test is described as follows: disruptors of C. elegans POS-1 RNA interaction – biochemical, fluorescence polarization, dose response (AID 1964).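 Also: purified POS-1 fused to maltose binding protein made in E. coli; potency of compounds blocking POS-1 binding to fluorescent RNA.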

A short description of test [9]: alpha-synuclein stem-loop luciferase translation blockers – H4 neuroglioma cells, luminescence, confirmation (AID 1988). In kind it is functional, cell-based.
A short description of test [10]: luciferase reporter signal suppression in cells – H4 neuroglioma cells, luminescence, dose response (AID 1990). It is filed as functional, cell-based.
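For AC50 in this document: CYP2D6 member of a cytochrome P450 panel assay.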

Chain of Luciferin 4-monooxygenase (P08659 whole entry): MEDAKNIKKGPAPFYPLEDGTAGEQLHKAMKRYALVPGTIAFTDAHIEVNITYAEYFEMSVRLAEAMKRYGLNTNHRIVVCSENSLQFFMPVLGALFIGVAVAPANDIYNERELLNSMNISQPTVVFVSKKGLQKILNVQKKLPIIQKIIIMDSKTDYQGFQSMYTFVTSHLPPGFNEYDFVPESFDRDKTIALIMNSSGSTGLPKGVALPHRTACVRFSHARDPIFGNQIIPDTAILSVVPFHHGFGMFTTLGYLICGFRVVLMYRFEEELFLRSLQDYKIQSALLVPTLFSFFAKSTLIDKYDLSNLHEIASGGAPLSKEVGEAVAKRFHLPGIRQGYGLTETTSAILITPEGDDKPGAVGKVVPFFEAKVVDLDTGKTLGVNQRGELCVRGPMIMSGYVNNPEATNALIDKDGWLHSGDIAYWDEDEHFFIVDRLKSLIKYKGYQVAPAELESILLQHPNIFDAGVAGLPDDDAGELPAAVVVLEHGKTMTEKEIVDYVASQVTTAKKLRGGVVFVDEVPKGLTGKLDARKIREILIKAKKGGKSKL
Chain of Cytochrome P450 2D6 (P10635 whole entry): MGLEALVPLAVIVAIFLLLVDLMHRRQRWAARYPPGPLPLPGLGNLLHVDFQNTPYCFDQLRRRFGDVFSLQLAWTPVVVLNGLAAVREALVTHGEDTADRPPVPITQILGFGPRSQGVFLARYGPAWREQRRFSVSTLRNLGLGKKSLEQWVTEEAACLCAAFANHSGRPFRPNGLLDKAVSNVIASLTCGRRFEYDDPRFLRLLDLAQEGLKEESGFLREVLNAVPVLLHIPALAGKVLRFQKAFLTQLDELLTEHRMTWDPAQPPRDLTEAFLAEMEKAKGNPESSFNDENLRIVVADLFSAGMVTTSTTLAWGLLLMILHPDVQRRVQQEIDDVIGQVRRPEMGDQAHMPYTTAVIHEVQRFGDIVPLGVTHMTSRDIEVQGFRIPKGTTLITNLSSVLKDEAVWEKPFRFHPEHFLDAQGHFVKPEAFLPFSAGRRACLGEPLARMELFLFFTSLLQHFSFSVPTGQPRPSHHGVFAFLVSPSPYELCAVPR

For the compound `N#CC(c1ccc(Cl)cc1)N1CCOCC1` (stereo not drawn), the EC50 in [1] and in [2] was > 112 µM (not active) each time.
As to `COc1ccnc(Oc2cccc(C(F)(F)F)c2)c1C(=O)N=CNOCc1ccccc1F`, the EC50 in test [3] was > 150 µM (inactive); in [4], > 38 µM (not active).
In the case of `CCOC(=O)Cc1csc(NC(=O)CSc2nnc(-c3ccc(NS(=O)(=O)CC)cc3)o2)n1`, the values for the EC50 in test [3] and in test [4] were > 150 µM (inactive) and > 38 µM (not active), respectively.
For the compound `O=C(Nc1nnc(-c2cccnc2)s1)c1cccs1`, the EC50 was 22.6 µM (active) in test [1] and > 112 µM (not active) in [2].
With `CC(C)NS(=O)(=O)c1ccc(NC(=O)C(C)Oc2ccc(C(=O)c3ccccc3)cc2)cc1` (stereo not drawn), in test [5], the EC50 is 4.6 µM (active).
Regarding `COc1ccc(C(C)NC(=O)c2ccccc2Cl)cc1OC` (stereo not drawn), the EC50 in [1] and in test [2] was > 112 µM (not active) in each case.
As for `O=C(COC(=O)c1[nH]nc2ccccc12)Nc1cccc(S(=O)(=O)N2CCOCC2)c1`, the EC50 in test [2] was > 112 µM (not active).
`O=C(c1ccc(S(=O)(=O)Nc2ccccc2)cc1)N1CCCCCCC1`: the EC50 in test [1] and in test [2] was > 112 µM (not active) throughout.
Regarding `O=C(COC(=O)CC(c1ccccc1)c1ccccc1)NCc1ccc(Cl)cc1`, the EC50 in test [5] is > 53 µM (inactive).
`COc1ccc(CNCCNC(=O)c2ccco2)c(OC)c1OC`: the results for the EC50 in test [3] and in test [4] were > 160 µM (inactive) and > 38 µM (not active), respectively.
The matching figures for `CC(C)(C)c1ccc(C(=O)NNc2ccc(F)cc2F)cc1`: 32.2 µM (active) and > 38 µM (not active).
As for `Cc1ccc(C(=O)NC(=S)NNC(=O)c2cccc([N+](=O)[O-])c2)cc1`, the EC50 with Streptococcus is 21.7 µM (active); in test [6] it was 1.53 µM (active); in test [5] it was 2.89 µM (active); on Streptokinase A, > 150 µM (not active).
Take `Cc1ccc(C)c(NC(S)=NNC(=O)c2csc3c2CCC(C)C3)c1` (stereo not drawn): the EC50 in test [3] was > 150 µM (inactive); in test [4] it was 3.32 µM (active).
Turning to `COc1ccc(-c2nc(CSCC(=O)N3CCN(c4cccc(C)c4)C(C)C3)c(C)o2)cc1OC` (stereo not drawn), the EC50 in test [1] and in test [2] was > 112 µM (not active) in each case.
Take `Cc1ccc(-c2c3c(nc4sc(C(N)=O)c(N)c24)CCC3)cc1`: at Cytochrome P450 2D6, the AC50 is 22.4 µM (inconclusive). Besides, the EC50 in [1] and in test [2] was > 112 µM (not active) each time.
For `CC(=O)NNC(=S)NC(=O)C(c1ccccc1)c1ccccc1`, the EC50 in the test on Streptococcus is 10.4 µM (active); in test [6], 3.24 µM (active); at Streptokinase A, > 150 µM (not active); in test [3], > 150 µM (inactive); in test [4], 1.52 µM (active).
As to `NC(=O)CSc1cn(Cc2cccc(F)c2)c2ccccc12`, the EC50 in test [1] and in test [2] was > 112 µM (not active) in each case.
For `Cc1ccc(C(=O)Nc2ccc(C)c(S(=O)(=O)N3CCOCC3)c2)c(C)c1`, the EC50 in [1] and in test [2] was > 112 µM (not active) in each case.
With `COc1ccc(/N=C/c2c(O)c3ccccc3n2C(C)=O)cc1`, the EC50 in test [7] was > 300 µM (inconclusive); in test [5], 6.35 µM (active); in test [8] it was > 300 µM (inconclusive).
In the case of `C/C(=N/OC(=O)c1ccc(C)cc1)c1cccs1`, the EC50 in [1] was 1.22 µM (active); in test [2], 5.14 µM (active).
Taken in the same sequence, the figures for `Brc1ccc(-c2nc(N/N=C/c3cccnc3)c3ccccc3n2)cc1` were 0.248 µM (active) and 0.407 µM (active).
With `Nc1ccn([C@@H]2O[C@H](CO)[C@@H](O)[C@@H]2O)c(=O)n1` [CYTARABINE HYDROCHLORIDE], the EC50 in [9] and in [10] was < 0.1 µM (active) throughout.

The values are drawn from ChEMBL document CHEMBL1201862, “PubChem BioAssay data set” (2004).
